Results reported in article PMC10239507, “Development of allosteric and selective CDK2 inhibitors for contraception with negative cooperativity to cyclin binding” (Nature Communications, 2023).

Assays:
Test in all cases: biochemical
[1] = biological target: T1, 371 kinases (kinase named in each endpoint) (Homo sapiens, UniProt Q9UQB9); settings: AURORA C
T1 construct: purchased Reaction Biology

[2] = biological target: T2, 371 kinases (kinase named in each endpoint) (Homo sapiens, UniProt Q9BXA6); settings: SSTK/TSSK6
T2 construct: purchased Reaction Biology

[3] = biological target: T3, 371 kinases (kinase named in each endpoint) (Homo sapiens, UniProt P00533); settings: EGFR
T3 construct: purchased Reaction Biology

[4] = biological target: T4, 371 kinases (kinase named in each endpoint) (Homo sapiens, UniProt O95747); settings: OSR1/OXSR1
T4 construct: purchased Reaction Biology
T4 sequence (O95747 whole entry): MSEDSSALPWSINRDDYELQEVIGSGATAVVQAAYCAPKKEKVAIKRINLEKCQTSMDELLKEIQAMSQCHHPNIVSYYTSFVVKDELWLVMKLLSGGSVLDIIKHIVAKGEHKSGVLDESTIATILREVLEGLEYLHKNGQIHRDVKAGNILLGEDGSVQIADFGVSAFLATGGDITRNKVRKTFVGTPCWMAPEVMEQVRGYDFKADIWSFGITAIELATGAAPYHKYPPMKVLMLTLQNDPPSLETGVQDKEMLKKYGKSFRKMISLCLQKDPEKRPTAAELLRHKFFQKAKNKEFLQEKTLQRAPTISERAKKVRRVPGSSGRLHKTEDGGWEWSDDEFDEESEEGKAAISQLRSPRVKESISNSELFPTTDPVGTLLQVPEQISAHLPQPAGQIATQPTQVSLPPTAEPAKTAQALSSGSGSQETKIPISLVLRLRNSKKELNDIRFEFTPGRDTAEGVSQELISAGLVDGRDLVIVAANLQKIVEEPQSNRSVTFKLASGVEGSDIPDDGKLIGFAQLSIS

[5] = biological target: T5, 371 kinases (kinase named in each endpoint) (Homo sapiens, UniProt P22694); settings: PKACB
T5 construct: purchased Reaction Biology

[6] = biological target: T6, 371 kinases (kinase named in each endpoint) (Homo sapiens, UniProt Q9HCP0); settings: CK1G1
T6 construct: purchased Reaction Biology

[7] = biological target: T7, 371 kinases (kinase named in each endpoint) (Homo sapiens, UniProt P42681); settings: TXK
T7 construct: purchased Reaction Biology

[8] = biological target: T8, 371 kinases (kinase named in each endpoint) (Homo sapiens, UniProt P22612); settings: PKACG
T8 construct: purchased Reaction Biology

[9] = biological target: T9, 371 kinases (kinase named in each endpoint) (Homo sapiens, UniProt Q13557); settings: CAMK2D
T9 construct: purchased Reaction Biology

[10] = biological target: T10, 371 kinases (kinase named in each endpoint) (Homo sapiens, UniProt P53779); settings: JNK3
T10 construct: purchased Reaction Biology

[11] = biological target: T11, 371 kinases (kinase named in each endpoint) (Homo sapiens, UniProt Q15746); settings: MLCK/MYLK
T11 construct: purchased Reaction Biology
T11 sequence (Q15746 whole entry): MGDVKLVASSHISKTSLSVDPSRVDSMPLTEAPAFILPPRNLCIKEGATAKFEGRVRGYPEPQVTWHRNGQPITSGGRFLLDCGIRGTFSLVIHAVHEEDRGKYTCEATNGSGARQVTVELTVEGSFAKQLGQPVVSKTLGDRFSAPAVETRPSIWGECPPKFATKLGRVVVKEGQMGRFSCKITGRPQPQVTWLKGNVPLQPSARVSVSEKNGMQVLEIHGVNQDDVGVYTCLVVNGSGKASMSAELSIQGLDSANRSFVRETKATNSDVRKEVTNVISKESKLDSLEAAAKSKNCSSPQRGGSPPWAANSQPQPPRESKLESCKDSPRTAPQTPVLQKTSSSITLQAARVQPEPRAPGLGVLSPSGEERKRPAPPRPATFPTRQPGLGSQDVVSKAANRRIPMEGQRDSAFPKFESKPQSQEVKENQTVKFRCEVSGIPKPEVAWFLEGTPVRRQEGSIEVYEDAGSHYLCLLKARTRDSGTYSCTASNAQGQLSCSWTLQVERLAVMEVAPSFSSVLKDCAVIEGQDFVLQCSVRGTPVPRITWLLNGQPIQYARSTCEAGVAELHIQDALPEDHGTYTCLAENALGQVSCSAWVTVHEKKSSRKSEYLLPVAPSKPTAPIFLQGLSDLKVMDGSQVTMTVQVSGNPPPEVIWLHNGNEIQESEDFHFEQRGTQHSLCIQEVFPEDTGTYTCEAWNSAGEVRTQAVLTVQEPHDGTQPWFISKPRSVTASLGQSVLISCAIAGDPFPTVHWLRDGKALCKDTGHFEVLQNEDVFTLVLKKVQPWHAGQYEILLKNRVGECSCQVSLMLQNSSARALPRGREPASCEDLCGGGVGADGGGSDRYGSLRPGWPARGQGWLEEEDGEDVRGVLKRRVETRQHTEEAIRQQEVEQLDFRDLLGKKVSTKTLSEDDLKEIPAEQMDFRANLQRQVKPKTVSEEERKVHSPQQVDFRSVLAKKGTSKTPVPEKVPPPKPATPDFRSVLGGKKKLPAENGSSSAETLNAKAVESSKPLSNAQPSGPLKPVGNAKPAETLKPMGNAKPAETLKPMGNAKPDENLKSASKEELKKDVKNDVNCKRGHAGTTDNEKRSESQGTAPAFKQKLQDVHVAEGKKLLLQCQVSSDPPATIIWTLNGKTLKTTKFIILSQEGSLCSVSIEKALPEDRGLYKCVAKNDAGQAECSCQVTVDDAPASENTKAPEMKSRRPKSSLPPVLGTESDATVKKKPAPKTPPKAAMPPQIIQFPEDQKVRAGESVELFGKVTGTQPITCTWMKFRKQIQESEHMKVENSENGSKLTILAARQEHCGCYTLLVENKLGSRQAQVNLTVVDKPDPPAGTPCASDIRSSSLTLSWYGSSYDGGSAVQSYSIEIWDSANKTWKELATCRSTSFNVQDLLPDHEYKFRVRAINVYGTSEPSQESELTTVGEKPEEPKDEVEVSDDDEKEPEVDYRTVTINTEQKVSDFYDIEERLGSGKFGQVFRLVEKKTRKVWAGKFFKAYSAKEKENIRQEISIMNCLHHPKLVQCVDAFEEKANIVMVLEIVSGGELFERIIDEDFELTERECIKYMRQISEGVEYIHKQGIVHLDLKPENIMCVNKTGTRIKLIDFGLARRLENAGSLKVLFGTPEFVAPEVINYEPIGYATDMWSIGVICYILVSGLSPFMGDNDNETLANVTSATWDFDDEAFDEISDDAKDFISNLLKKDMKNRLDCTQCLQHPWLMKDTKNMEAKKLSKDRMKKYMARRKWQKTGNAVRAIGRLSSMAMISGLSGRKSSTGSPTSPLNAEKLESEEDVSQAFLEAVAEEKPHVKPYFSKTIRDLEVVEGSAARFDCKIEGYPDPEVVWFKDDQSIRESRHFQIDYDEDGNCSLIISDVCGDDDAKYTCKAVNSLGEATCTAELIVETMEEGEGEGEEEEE

[12] = biological target: T12, 371 kinases (kinase named in each endpoint) (Homo sapiens, UniProt Q8N752); settings: CK1A1L
T12 construct: purchased Reaction Biology

[13] = biological target: T13, 371 kinases (kinase named in each endpoint) (Homo sapiens, UniProt Q9BYP7); settings: WNK3
T13 construct: purchased Reaction Biology

[14] = biological target: T14, 371 kinases (kinase named in each endpoint) (Homo sapiens, UniProt Q86Y07); settings: VRK2
T14 construct: purchased Reaction Biology

[15] = biological target: T15, 371 kinases (kinase named in each endpoint) (Homo sapiens, UniProt Q9Y243); settings: AKT3
T15 construct: purchased Reaction Biology

[16] = biological target: T16, 371 kinases (kinase named in each endpoint) (Homo sapiens, UniProt P48729); settings: CK1A1
T16 construct: purchased Reaction Biology

[17] = biological target: T17, 371 kinases (kinase named in each endpoint) (Homo sapiens, UniProt P52564); settings: MKK6
T17 construct: purchased Reaction Biology

[18] = biological target: T18, 371 kinases (kinase named in each endpoint) (Homo sapiens, UniProt Q15208); settings: STK38/NDR1
T18 construct: purchased Reaction Biology

[19] = biological target: T19, 371 kinases (kinase named in each endpoint) (Homo sapiens, UniProt Q9Y4K4); settings: KHS/MAP4K5
T19 construct: purchased Reaction Biology

[20] = biological target: T20, 371 kinases (kinase named in each endpoint) (Homo sapiens, UniProt Q02156); settings: PKCEPSILON
T20 construct: purchased Reaction Biology

[21] = biological target: T21, 371 kinases (kinase named in each endpoint) (Homo sapiens, UniProt P06493)
T21 construct: purchased Reaction Biology
T21 sequence (P06493 whole entry): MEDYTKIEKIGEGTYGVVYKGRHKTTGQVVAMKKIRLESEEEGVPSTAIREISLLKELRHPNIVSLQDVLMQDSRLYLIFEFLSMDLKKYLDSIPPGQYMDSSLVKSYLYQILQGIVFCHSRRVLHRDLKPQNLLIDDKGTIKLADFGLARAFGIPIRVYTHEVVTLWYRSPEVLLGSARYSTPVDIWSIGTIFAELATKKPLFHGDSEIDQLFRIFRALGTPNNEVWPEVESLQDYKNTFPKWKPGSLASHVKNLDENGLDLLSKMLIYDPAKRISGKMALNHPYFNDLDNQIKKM

[22] = biological target: T22, 371 kinases (kinase named in each endpoint) (Homo sapiens, UniProt Q9NRH2); settings: SNRK
T22 construct: purchased Reaction Biology

[23] = biological target: T23, 371 kinases (kinase named in each endpoint) (Homo sapiens, UniProt P78368); settings: CK1G2
T23 construct: purchased Reaction Biology

[24] = biological target: T24, 371 kinases (kinase named in each endpoint) (Homo sapiens, UniProt P36888); settings: FLT3
T24 construct: purchased Reaction Biology

[25] = biological target: T25, 371 kinases (kinase named in each endpoint) (Homo sapiens, UniProt Q8IW41); settings: MAPKAPK5/PRAK
T25 construct: purchased Reaction Biology

[26] = biological target: T26, 371 kinases (kinase named in each endpoint) (Homo sapiens, UniProt O96017); settings: CHK2
T26 construct: purchased Reaction Biology
T26 sequence (O96017 whole entry): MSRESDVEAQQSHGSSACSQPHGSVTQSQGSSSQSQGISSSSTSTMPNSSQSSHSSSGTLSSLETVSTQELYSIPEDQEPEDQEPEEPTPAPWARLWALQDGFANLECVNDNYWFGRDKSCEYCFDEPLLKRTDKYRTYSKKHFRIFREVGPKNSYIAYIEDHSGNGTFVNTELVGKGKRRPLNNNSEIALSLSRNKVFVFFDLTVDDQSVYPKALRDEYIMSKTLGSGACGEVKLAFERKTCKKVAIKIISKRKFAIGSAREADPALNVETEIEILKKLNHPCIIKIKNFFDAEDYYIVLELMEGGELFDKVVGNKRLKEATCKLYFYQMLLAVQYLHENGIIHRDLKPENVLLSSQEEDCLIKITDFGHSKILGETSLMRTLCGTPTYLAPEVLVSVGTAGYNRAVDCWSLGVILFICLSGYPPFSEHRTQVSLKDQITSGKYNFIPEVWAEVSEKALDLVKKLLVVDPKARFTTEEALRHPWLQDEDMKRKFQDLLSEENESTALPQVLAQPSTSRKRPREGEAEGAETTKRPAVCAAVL

[27] = biological target: T27, 371 kinases (kinase named in each endpoint) (Homo sapiens, UniProt Q16832); settings: DDR2
T27 construct: purchased Reaction Biology

[28] = biological target: T28, 371 kinases (kinase named in each endpoint) (Homo sapiens, UniProt Q8IVH8); settings: GLK/MAP4K3
T28 construct: purchased Reaction Biology
T28 sequence (Q8IVH8 whole entry): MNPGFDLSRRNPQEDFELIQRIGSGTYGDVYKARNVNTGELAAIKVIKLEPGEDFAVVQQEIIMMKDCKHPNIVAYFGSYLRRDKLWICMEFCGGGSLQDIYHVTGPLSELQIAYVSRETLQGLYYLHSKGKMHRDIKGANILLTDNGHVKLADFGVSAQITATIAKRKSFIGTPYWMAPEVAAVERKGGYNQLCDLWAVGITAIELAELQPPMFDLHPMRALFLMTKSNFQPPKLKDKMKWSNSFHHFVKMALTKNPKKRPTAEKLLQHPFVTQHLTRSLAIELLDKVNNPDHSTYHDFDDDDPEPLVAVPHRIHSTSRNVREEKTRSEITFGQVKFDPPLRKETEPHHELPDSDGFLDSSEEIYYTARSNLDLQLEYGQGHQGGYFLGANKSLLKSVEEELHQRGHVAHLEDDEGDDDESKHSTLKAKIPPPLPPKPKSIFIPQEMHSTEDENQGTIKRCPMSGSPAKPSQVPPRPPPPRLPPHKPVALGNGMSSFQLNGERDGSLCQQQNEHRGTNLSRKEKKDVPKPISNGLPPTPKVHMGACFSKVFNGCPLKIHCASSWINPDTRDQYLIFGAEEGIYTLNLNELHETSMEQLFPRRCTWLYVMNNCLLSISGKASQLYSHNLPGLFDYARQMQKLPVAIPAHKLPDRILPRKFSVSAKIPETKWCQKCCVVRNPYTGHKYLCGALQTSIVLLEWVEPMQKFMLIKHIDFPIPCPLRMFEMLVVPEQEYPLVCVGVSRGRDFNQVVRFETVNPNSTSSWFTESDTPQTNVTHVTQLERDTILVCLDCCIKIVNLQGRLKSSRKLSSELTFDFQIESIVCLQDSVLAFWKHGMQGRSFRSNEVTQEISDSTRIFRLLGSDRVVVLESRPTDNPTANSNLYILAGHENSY

[29] = biological target: T29, 371 kinases (kinase named in each endpoint) (Homo sapiens, UniProt P36896); settings: ALK4/ACVR1B
T29 construct: purchased Reaction Biology

[30] = biological target: T30, 371 kinases (kinase named in each endpoint) (Homo sapiens, UniProt Q8TD08); settings: ERK7/MAPK15
T30 construct: purchased Reaction Biology

[31] = biological target: T31, 371 kinases (kinase named in each endpoint) (Homo sapiens, UniProt P45983); settings: JNK1
T31 construct: purchased Reaction Biology

[32] = biological target: T32, 371 kinases (kinase named in each endpoint) (Homo sapiens, UniProt Q86YV6); settings: MYLK4
T32 construct: purchased Reaction Biology
T32 sequence (Q86YV6 whole entry): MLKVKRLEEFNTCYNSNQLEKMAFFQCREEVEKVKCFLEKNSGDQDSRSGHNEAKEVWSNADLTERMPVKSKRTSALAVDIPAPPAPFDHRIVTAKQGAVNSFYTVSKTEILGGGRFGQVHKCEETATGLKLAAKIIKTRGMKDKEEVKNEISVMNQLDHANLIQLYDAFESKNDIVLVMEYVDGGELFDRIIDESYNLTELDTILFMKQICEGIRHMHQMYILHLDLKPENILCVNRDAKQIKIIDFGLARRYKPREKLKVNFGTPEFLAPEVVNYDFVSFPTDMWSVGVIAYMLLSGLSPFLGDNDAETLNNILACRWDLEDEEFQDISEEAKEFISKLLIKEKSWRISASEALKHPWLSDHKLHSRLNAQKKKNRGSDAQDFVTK

[33] = biological target: T33, 371 kinases (kinase named in each endpoint) (Homo sapiens, UniProt Q04912); settings: RON/MST1R
T33 construct: purchased Reaction Biology

[34] = biological target: T34, 371 kinases (kinase named in each endpoint) (Homo sapiens, UniProt P54756); settings: EPHA5
T34 construct: purchased Reaction Biology

[35] = biological target: T35, 371 kinases (kinase named in each endpoint) (Homo sapiens, UniProt Q9UEE5); settings: DRAK1/STK17A
T35 construct: purchased Reaction Biology

[36] = biological target: T36, 371 kinases (kinase named in each endpoint) (Homo sapiens, UniProt Q9Y6E0); settings: MST3/STK24
T36 construct: purchased Reaction Biology
T36 sequence (Q9Y6E0 whole entry): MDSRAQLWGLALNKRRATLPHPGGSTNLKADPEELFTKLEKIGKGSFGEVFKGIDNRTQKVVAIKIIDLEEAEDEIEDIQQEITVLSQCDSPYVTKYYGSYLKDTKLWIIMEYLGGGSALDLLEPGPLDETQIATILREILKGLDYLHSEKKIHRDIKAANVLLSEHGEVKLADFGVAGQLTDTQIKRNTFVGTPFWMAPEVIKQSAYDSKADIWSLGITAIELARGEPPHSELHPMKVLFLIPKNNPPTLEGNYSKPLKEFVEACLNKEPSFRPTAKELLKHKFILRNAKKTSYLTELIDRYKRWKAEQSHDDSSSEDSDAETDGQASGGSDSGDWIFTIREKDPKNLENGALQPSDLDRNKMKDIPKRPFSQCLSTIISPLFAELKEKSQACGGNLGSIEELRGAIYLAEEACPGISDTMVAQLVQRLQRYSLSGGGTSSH

With `O=C(O)c1cc(C(F)(F)F)ccc1NCCc1c[nH]c2cc(Br)ccc12` [Compound 5, 2-((2-(6-Bromo-1H-indol-3-yl)ethyl)amino)−5-(trifluoromethyl)benzoic Acid] as the compound, how does the activity at 10 µM [1] read?
Its activity at 10 µM is 98 ± 0.2%.

And the activity at 10 µM [2]?
Its activity at 10 µM is 102 ± 3%.

What about the activity at 10 µM [3] of the same compound?
Its activity at 10 µM is 87.8 ± 1%.

What about the activity at 10 µM [4] of the same compound?
Its activity at 10 µM is 59.4 ± 2.8%.

And the activity at 10 µM [5]?
The activity at 10 µM was 93.4 ± 0.4%.

What about the activity at 10 µM [6] of the same compound?
Its activity at 10 µM is 96.2 ± 0.3%.

What about the activity at 10 µM [7] of the same compound?
Its activity at 10 µM is 80.5 ± 0.4%.

What about the activity at 10 µM [8] of the same compound?
Its activity at 10 µM is 76.2 ± 2.6%.

What about the activity at 10 µM [9] of the same compound?
Its activity at 10 µM is 78.3 ± 3.4%.

And the activity at 10 µM [10]?
The activity at 10 µM was 90.9 ± 0.3%.

And the activity at 10 µM [11]?
The activity at 10 µM was 57.6 ± 2%.

What about the activity at 10 µM [12] of the same compound?
Its activity at 10 µM is 90.8 ± 1.1%.

What about the activity at 10 µM [13] of the same compound?
The activity at 10 µM was 100.7 ± 0.4%.

And the activity at 10 µM [14]?
The activity at 10 µM was 94.6 ± 1%.

What about the activity at 10 µM [15] of the same compound?
The activity at 10 µM was 90.2 ± 0.5%.

What about the activity at 10 µM [16] of the same compound?
The activity at 10 µM was 91.2 ± 0.3%.

And the activity at 10 µM [17]?
Its activity at 10 µM is 101 ± 0.2%.

And the activity at 10 µM [18]?
Its activity at 10 µM is 88 ± 0.7%.

What about the activity at 10 µM [19] of the same compound?
The activity at 10 µM was 72 ± 2.8%.

What about the activity at 10 µM [20] of the same compound?
The activity at 10 µM was 96.1 ± 0.2%.

And the activity at 10 µM ([21]; CDK1/CYCLIN E)?
Its activity at 10 µM is 60.2 ± 0.3%.

And the activity at 10 µM ([21]; CDK1/cyclin A)?
Its activity at 10 µM is 95.4 ± 0.8%.

And the activity at 10 µM [22]?
The activity at 10 µM was 80.4 ± 2.1%.

What about the activity at 10 µM [23] of the same compound?
The activity at 10 µM was 102 ± 1.6%.

What about the activity at 10 µM [24] of the same compound?
Its activity at 10 µM is 95.2 ± 1.6%.

What about the activity at 10 µM [25] of the same compound?
The activity at 10 µM was 95.4 ± 2%.

And the activity at 10 µM [26]?
The activity at 10 µM was 90.2 ± 1.5%.

And the activity at 10 µM [27]?
Its activity at 10 µM is 103 ± 3.6%.

What about the activity at 10 µM [28] of the same compound?
The activity at 10 µM was 97.8 ± 0.3%.

And the activity at 10 µM [29]?
The activity at 10 µM was 66.7 ± 0.1%.

And the activity at 10 µM [30]?
Its activity at 10 µM is 136 ± 6.1%.

What about the activity at 10 µM [31] of the same compound?
Its activity at 10 µM is 88.4 ± 1.1%.

And the activity at 10 µM [32]?
Its activity at 10 µM is 78.7 ± 0.2%.

What about the activity at 10 µM [33] of the same compound?
The activity at 10 µM was 89.7 ± 2.7%.

What about the activity at 10 µM [34] of the same compound?
The activity at 10 µM was 93.4 ± 0.3%.

What about the activity at 10 µM [35] of the same compound?
The activity at 10 µM was 109 ± 2.6%.

What about the activity at 10 µM [36] of the same compound?
Its activity at 10 µM is 104 ± 1.9%.
